The source made the active and inactive calls. The calls are words filed in the database; no cut-off is given here.
What was measured:
[1] = Displacement of [3H]Ins(1,4,5)P3 from Ins(1,4,5)P3 receptor in bovine adrenal cortex; type: tissue-based, Bos taurus
[2] = Inhibition of alkaline phosphatase
[3] = Chemical stability in presence of alkaline phosphatase; type: physicochemical

Row | SMILES | Kd [1] | Activity [2] | Stability ([3]; isolated protein) | Kd [3]
1 | O[C@@H]1[C@@H](OP(O)(O)=S)[C@H](OP(O)(O)=S)CC[C@H]1OP(O)(O)=S | 810 nM | inactive | Stable | 
2 | O=P(O)(O)O[C@@H]1[C@H](O)[C@H](O)[C@@H](OP(=O)(O)O)[C@H](OP(=O)(O)O)[C@H]1O [INS(1,4,5)P3] |  |  |  | 54 nM
